This is an account of results in ChEMBL document CHEMBL2040837, “Synthesis and cytotoxic activity of some 17-picolyl and 17-picolinylidene androstane derivatives” (Eur J Med Chem, 2012).

Each structure is given as a SMILES string. Bounds are passed on as bounds.

The test system of one assay is HeLa. Kind of assay: Cytotoxicity against human HeLa cells […] by SRB assay. It is filed as functional, cell-based. In general terms: Sulforhodamine B stains cellular protein and so reports cell mass.
In the next assay the test system is HT-29. Kind of assay: Cytotoxicity against human HT-29 cells […] by SRB assay. It is filed as functional, cell-based.
The next assay concerns MRC5. Kind of assay: Cytotoxicity against human MRC5 cells […] by SRB assay. It is filed as cell-based.
Another assay concerns PC-3. Kind of assay: Cytotoxicity against AR-negative human PC3 cells after 48 hr by SRB assay. The conditions noted are these: PC-3, 48 h.
For another assay, the system named is MCF7. As to the kind of experiment: Cytotoxicity against ER-positive human MCF7 cells after 48 hr by SRB assay. As to conditions: MCF7, 48 h.
Assay [1] relates to MDA-MB-231. As to the kind of experiment: Cytotoxicity against ER-negative human MDA-MB-231 cells after 48 hr by SRB assay. The conditions noted are these: for IC50: MDA-MB-231, 48 h.
Assay [2] concerns MDA-MB-231. Kind of assay: Cytotoxicity against ER-negative human MDA-MB-231 cells at <1 uM after 48 hr by SRB assay.
The test system of assay [3] is MDA-MB-231. As to the kind of experiment: Ratio of 17alpha-picolyl-androst-5-en 3beta, 17beta-diol IC50 to compound IC50 cytotoxicity against ER-negative human MDA-MB-231 cells after 48 hr by SRB assay.

The IC50 is the concentration that gives 50% inhibition. A low value points to greater potency. As for `C[C@]12CCC=CC1=CC[C@@H]1[C@@H]2CC[C@]2(C)/C(=C/c3ccccn3)CC[C@@H]12`, the half-inhibitory concentration (IC50) in the assay on HeLa was 23.3 µM; with HT-29, 1.8 µM; in the assay on MRC5 it was over 100 µM; in the assay on PC-3 it was 19.9 µM; in the assay on MCF7, 55.8 µM; with MDA-MB-231 [1] it was 4.6 µM. In addition, the Activity result in the assay on MDA-MB-231 [1] is “Dose-dependent effect”.

For the compound `C[C@]12CCC=CC1=CC[C@@H]1[C@@H]2CC[C@@]2(C)[C@H]1CC[C@@]2(O)Cc1ccccn1`, the IC50 was 27.5 µM in the assay on HeLa; 11.7 µM in the assay on HT-29; over 100 µM with MRC5; 24.7 µM in the assay with PC-3; 17.4 µM in the assay on MCF7; 2.3 µM in the assay with MDA-MB-231 [1]. Also, in the assay with MDA-MB-231 [1], the Activity result is “Dose-dependent effect”.

Regarding `COC1=C2CC[C@@H]3[C@H](CC[C@@]4(C)[C@H]3CC[C@@]4(O)Cc3ccccn3)[C@@]2(C)CCC1=O`, the half-maximal inhibitory concentration (IC50) was 19.1 µM with HeLa; over 100 µM in the assay with HT-29; over 100 µM in the assay with MRC5; 54.8 µM with PC-3; over 100 µM with MCF7; 42.6 µM in the assay on MDA-MB-231 [1]. For the same compound, the Activity result with MDA-MB-231 [1] was “Dose-dependent effect”.

On to `COC1=C2CC[C@@H]3[C@H](CC[C@]4(C)/C(=C/c5ccccn5)CC[C@@H]34)[C@@]2(C)CCC1=O`, for which the half-inhibitory concentration (IC50) with HeLa is 15.3 µM; in the assay on HT-29, 56 µM; with MRC5, over 100 µM; in the assay with PC-3, 34.1 µM; with MCF7, over 100 µM; in the assay on MDA-MB-231 [1], 4.1 µM. In addition, the Activity result is “Dose-dependent effect” in the assay on MDA-MB-231 [1] and 10% in the assay on MDA-MB-231 [2].

For `C[C@]12CCC(=O)C(O)=C1C=C[C@@H]1[C@@H]2CC[C@@]2(C)[C@H]1CC[C@@]2(O)Cc1ccccn1`, the 50% inhibitory concentration (IC50) was 36.6 µM with HeLa; over 100 µM with HT-29; over 100 µM with MRC5; 25.6 µM in the assay on PC-3; 3.6 µM with MCF7; 1.2 µM in the assay on MDA-MB-231 [1]. The Activity entry in the assay on MDA-MB-231 [1] is “Dose-dependent effect”.

On to `C[C@]12CC[C@H]3[C@@H](C[C@@H]4O[C@@]45C[C@@H](O)CC[C@]35C)[C@@H]1CC[C@@]2(O)Cc1cccc[n+]1[O-]`, for which the IC50 in the assay on HeLa is 33.5 µM; in the assay with HT-29 it was 25.8 µM; in the assay on MRC5 it was over 100 µM; in the assay on PC-3, 33.6 µM; in the assay on MCF7, over 100 µM; in the assay with MDA-MB-231 [1] it was 7.5 µM. In the assay on MDA-MB-231 [1], the Activity entry was “Dose-dependent effect”.

As for `C[C@]12CC[C@H](O)C=C1CC[C@@H]1[C@@H]2CC[C@]2(C)/C(=C/c3ccccn3)CC[C@@H]12`, the IC50 in the assay with MRC5 was over 100 µM; with PC-3 it was 10.1 µM; in the assay on MCF7 it was over 100 µM; in the assay with MDA-MB-231 [1] it was over 100 µM. In addition, the Activity result with MDA-MB-231 [1] was “Dose-dependent effect”.

For the compound `C[C@]12CCC(=O)C(O)=C1CC[C@@H]1[C@@H]2CC[C@]2(C)C(=O)CC[C@@H]12` [FORMESTANE], the IC50 in the assay with HeLa is 5.55 µM; in the assay with HT-29 it was over 100 µM; in the assay with MRC5, over 100 µM; with PC-3, 48.4 µM; with MCF7, over 100 µM; in the assay on MDA-MB-231 [1], 55.5 µM. Also, in the assay with MDA-MB-231 [1], the Activity entry was “Dose-dependent effect”.

For the compound `C[C@]12CC[C@H](O)CC1=CC[C@@H]1[C@@H]2CC[C@@]2(C)[C@H]1CC[C@@]2(O)Cc1ccccn1`, the IC50 with MRC5 was over 100 µM; in the assay with PC-3, 6.3 µM; in the assay with MCF7, over 100 µM; in the assay on MDA-MB-231 [1] it was 96.1 µM. In addition, the Activity entry in the assay with MDA-MB-231 [1] was “Dose-dependent effect”.

`COc1cccc2c1C(=O)c1c(O)c3c(c(O)c1C2=O)C[C@@](O)(C(=O)CO)C[C@@H]3O[C@H]1C[C@H](N)[C@H](O)[C@H](C)O1` [DOXORUBICIN]: the IC50 turned out to be 1.17 µM in the assay with HeLa; 0.32 µM with HT-29; 0.12 µM with MRC5; 95.6 µM with PC-3; 0.75 µM in the assay with MCF7; 0.12 µM with MDA-MB-231 [1]. In addition, the Activity result in the assay with MDA-MB-231 [1] is “Dose-dependent effect”.

For the compound `C[C@]12CC[C@H](O)[C@@H](O)C1=CC[C@@H]1[C@@H]2CC[C@@]2(C)[C@H]1CC[C@@]2(O)Cc1ccccn1`, the IC50 with HeLa was 21.3 µM; with HT-29 it was 2.6 µM; with MRC5 it was over 100 µM; in the assay with PC-3, 21.3 µM; with MCF7 it was over 100 µM; in the assay on MDA-MB-231 [1] it was 5.6 µM. For the same compound, the Activity entry in the assay with MDA-MB-231 [1] was “Dose-dependent effect”. Moreover, the “Ratio IC50” value in the assay on MDA-MB-231 [3] amounted to 17.

On to `C[C@]12CCC(=O)C(O)=C1C=C[C@@H]1[C@@H]2CC[C@]2(C)/C(=C/c3ccccn3)CC[C@@H]12`, for which the IC50 in the assay on MRC5 is over 100 µM; in the assay with PC-3, over 100 µM; in the assay on MCF7, over 100 µM; in the assay on MDA-MB-231 [1], 9.3 µM. The Activity entry with MDA-MB-231 [1] is “Dose-dependent effect”.

Turning to `C[C@]12CCC(=O)C=C1C(=O)C[C@@H]1[C@@H]2CC[C@@]2(C)[C@H]1CC[C@@]2(O)Cc1ccccn1`, the IC50 is over 100 µM in the assay with HeLa; over 100 µM with HT-29; over 100 µM in the assay with MRC5; 4.3 µM in the assay with PC-3; over 100 µM in the assay with MCF7; over 100 µM with MDA-MB-231 [1]. In addition, the Activity entry in the assay on MDA-MB-231 [1] is “Dose-dependent effect”.

Regarding `C[C@]12CC[C@H](O)[C@H](O)C1=CC[C@@H]1[C@@H]2CC[C@@]2(C)[C@H]1CC[C@@]2(O)Cc1ccccn1`, the IC50 is 26.6 µM in the assay on HeLa; 8 µM in the assay with HT-29; over 100 µM in the assay on MRC5; 52.1 µM with PC-3; over 100 µM with MCF7; 9 µM in the assay with MDA-MB-231 [1]. Moreover, the Activity entry in the assay with MDA-MB-231 [1] was “Dose-dependent effect”. Further, the “Ratio IC50” value with MDA-MB-231 [3] was 10.

Consider `CC(=O)O[C@@H]1C=C2CC[C@@H]3[C@H](CC[C@@]4(C)[C@H]3CC[C@@]4(O)Cc3ccccn3)[C@@]2(C)CC1`, for which the IC50 was over 100 µM in the assay with HeLa; 10.6 µM in the assay on HT-29; over 100 µM with MRC5; 31.3 µM in the assay on PC-3; over 100 µM in the assay with MCF7; 10.2 µM in the assay on MDA-MB-231 [1]. For the same compound, the Activity entry in the assay with MDA-MB-231 [1] was “Dose-dependent effect”.

In the case of `C[C@]12CC[C@H](O)C=C1CC[C@@H]1[C@@H]2CC[C@@]2(C)[C@H]1CC[C@@]2(O)Cc1ccccn1`, the IC50 in the assay on HeLa was 26.9 µM; with HT-29 it was over 100 µM; in the assay with MRC5 it was over 100 µM; with PC-3, 22.3 µM; in the assay with MCF7, over 100 µM; in the assay with MDA-MB-231 [1] it was 3.8 µM. Further, the Activity result in the assay on MDA-MB-231 [1] was “Dose-dependent effect”.
